Assays:
Assay in all cases: relative viability (nuclei count vs DMSO), 5 days (fraction); higher = more cells survive
NCI-H2023 = test system: NCI-H2023
Procedure, shortened: (§1)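 Lung cancer cell lines were pin-tool dosed in 1536-well plates on the day after seeding, with either a lone drug or a fixed anchor-drug dose plus five library-drug doses (not always all listed) in √10 steps. Nuclei were counted on 4× images after 5 days. Relative viability is the ratio of treated-well to vehicle-well nuclei counts, with each value a median of duplicate plates.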

NCI-H2126 = test system: NCI-H2126
Procedure, shortened: as §1

HCC-15 = test system: HCC-15
Procedure, shortened: as §1

LC-2-ad = test system: LC-2-ad
Procedure, shortened: as §1

NCI-H3122 = test system: NCI-H3122
Procedure, shortened: as §1

NCI-H1755 = test system: NCI-H1755
Procedure, shortened: as §1

LU99A = test system: LU99A
Procedure, shortened: as §1

BEN = test system: BEN
Procedure, shortened: as §1

NCI-H1915 = test system: NCI-H1915
Procedure, shortened: as §1

SW 1573 = test system: SW 1573
Procedure, shortened: as §1

HOP-62 = test system: HOP-62
Procedure, shortened: as §1

EMC-BAC-2 = test system: EMC-BAC-2
Procedure, shortened: as §1

HCC-44 = test system: HCC-44
Procedure, shortened: as §1

NCI-H1734 = test system: NCI-H1734
Procedure, shortened: as §1

NCI-H1395 = test system: NCI-H1395
Procedure, shortened: as §1

NCI-H1437 = test system: NCI-H1437
Procedure, shortened: as §1

NCI-H727 = test system: NCI-H727
Procedure, shortened: as §1

NCI-H358 = test system: NCI-H358
Procedure, shortened: as §1

SW 900 = test system: SW 900
Procedure, shortened: as §1

NCI-H2170 = test system: NCI-H2170
Procedure, shortened: as §1

NCI-H1563 = test system: NCI-H1563
Procedure, shortened: as §1

NCI-H650 = test system: NCI-H650
Procedure, shortened: as §1

SMILES: Cc1csc(=NC2CCCCC2)n1/N=C/c1ccc(O)c(O)c1O [MIM1] + N=C(N)NC(=N)NCCc1ccccc1 [Phenformin] (partner 250 µM)
- relative viability (NCI-H2023; first compound 0.2 µM): 0.417
- relative viability (NCI-H2023; first compound 0.6325 µM): 0.416
- relative viability (NCI-H2023; first compound 2 µM): 0.294
- relative viability (NCI-H2023; first compound 6.325 µM): 0.127
- relative viability (NCI-H2023; first compound 20 µM): 0.0931
- relative viability (NCI-H2126; first compound 0.2 µM): 0.512
- relative viability (NCI-H2126; first compound 0.6325 µM): 0.524
- relative viability (NCI-H2126; first compound 2 µM): 0.54
- relative viability (NCI-H2126; first compound 6.325 µM): 0.45
- relative viability (NCI-H2126; first compound 20 µM): 0.391
- relative viability (HCC-15; first compound 0.2 µM): 0.501
- relative viability (HCC-15; first compound 2 µM): 0.51
- relative viability (HCC-15; first compound 6.325 µM): 0.162
- relative viability (HCC-15; first compound 20 µM): 0.114
- relative viability (LC-2-ad; first compound 0.2 µM): 0.679
- relative viability (LC-2-ad; first compound 0.6325 µM): 0.502
- relative viability (LC-2-ad; first compound 2 µM): 0.537
- relative viability (LC-2-ad; first compound 6.325 µM): 0.389
- relative viability (LC-2-ad; first compound 20 µM): 0.217
- relative viability (NCI-H3122; first compound 0.2 µM): 0.364
- relative viability (NCI-H3122; first compound 0.6325 µM): 0.371
- relative viability (NCI-H3122; first compound 2 µM): 0.355
- relative viability (NCI-H3122; first compound 6.325 µM): 0.195
- relative viability (NCI-H3122; first compound 20 µM): 0.143
- relative viability (NCI-H1755; first compound 0.2 µM): 0.596
- relative viability (NCI-H1755; first compound 0.6325 µM): 0.597
- relative viability (NCI-H1755; first compound 2 µM): 0.621
- relative viability (NCI-H1755; first compound 6.325 µM): 0.506
- relative viability (NCI-H1755; first compound 20 µM): 0.226
- relative viability (LU99A; first compound 0.2 µM): 0.976
- relative viability (LU99A; first compound 0.6325 µM): 0.753
- relative viability (LU99A; first compound 2 µM): 0.819
- relative viability (LU99A; first compound 6.325 µM): 0.702
- relative viability (LU99A; first compound 20 µM): 0.325
- relative viability (BEN; first compound 0.2 µM): 0.261
- relative viability (BEN; first compound 0.6325 µM): 0.236
- relative viability (BEN; first compound 2 µM): 0.236
- relative viability (BEN; first compound 6.325 µM): 0.28
- relative viability (BEN; first compound 20 µM): 0.213
- relative viability (NCI-H1915; first compound 0.2 µM): 0.421
- relative viability (NCI-H1915; first compound 0.6325 µM): 0.306
- relative viability (NCI-H1915; first compound 2 µM): 0.344
- relative viability (NCI-H1915; first compound 6.325 µM): 0.295
- relative viability (NCI-H1915; first compound 20 µM): 0.22
- relative viability (SW 1573; first compound 0.2 µM): 0.377
- relative viability (SW 1573; first compound 0.6325 µM): 0.455
- relative viability (SW 1573; first compound 2 µM): 0.442
- relative viability (SW 1573; first compound 6.325 µM): 0.25
- relative viability (SW 1573; first compound 20 µM): 0.081
- relative viability (HOP-62; first compound 0.2 µM): 0.641
- relative viability (HOP-62; first compound 0.6325 µM): 0.603
- relative viability (HOP-62; first compound 2 µM): 0.624
- relative viability (HOP-62; first compound 6.325 µM): 0.608
- relative viability (HOP-62; first compound 20 µM): 0.157
- relative viability (EMC-BAC-2; first compound 0.2 µM): 0.547
- relative viability (EMC-BAC-2; first compound 0.6325 µM): 0.455
- relative viability (EMC-BAC-2; first compound 2 µM): 0.515
- relative viability (EMC-BAC-2; first compound 6.325 µM): 0.48
- relative viability (EMC-BAC-2; first compound 20 µM): 0.208
- relative viability (HCC-44; first compound 0.2 µM): 0.239
- relative viability (HCC-44; first compound 0.6325 µM): 0.138
- relative viability (HCC-44; first compound 2 µM): 0.111
- relative viability (HCC-44; first compound 6.325 µM): 0.154
- relative viability (HCC-44; first compound 20 µM): 0.13
- relative viability (NCI-H1734; first compound 0.2 µM): 0.395
- relative viability (NCI-H1734; first compound 0.6325 µM): 0.375
- relative viability (NCI-H1734; first compound 2 µM): 0.443
- relative viability (NCI-H1734; first compound 6.325 µM): 0.35
- relative viability (NCI-H1734; first compound 20 µM): 0.179
- relative viability (NCI-H1395; first compound 0.2 µM): 0.45
- relative viability (NCI-H1395; first compound 0.6325 µM): 0.444
- relative viability (NCI-H1395; first compound 2 µM): 0.459
- relative viability (NCI-H1395; first compound 6.325 µM): 0.399
- relative viability (NCI-H1395; first compound 20 µM): 0.346
- relative viability (NCI-H1437; first compound 0.2 µM): 0.256
- relative viability (NCI-H1437; first compound 0.6325 µM): 0.246
- relative viability (NCI-H1437; first compound 2 µM): 0.244
- relative viability (NCI-H1437; first compound 6.325 µM): 0.205
- relative viability (NCI-H1437; first compound 20 µM): 0.217
- relative viability (NCI-H727; first compound 0.2 µM): 0.513
- relative viability (NCI-H727; first compound 0.6325 µM): 0.559
- relative viability (NCI-H727; first compound 2 µM): 0.481
- relative viability (NCI-H727; first compound 6.325 µM): 0.561
- relative viability (NCI-H727; first compound 20 µM): 0.301
- relative viability (NCI-H358; first compound 0.2 µM): 0.373
- relative viability (NCI-H358; first compound 0.6325 µM): 0.296
- relative viability (NCI-H358; first compound 2 µM): 0.299
- relative viability (NCI-H358; first compound 6.325 µM): 0.135
- relative viability (NCI-H358; first compound 20 µM): 0.118
- relative viability (SW 900; first compound 0.2 µM): 0.683
- relative viability (SW 900; first compound 0.6325 µM): 0.712
- relative viability (SW 900; first compound 2 µM): 0.778
- relative viability (SW 900; first compound 6.325 µM): 0.495
- relative viability (SW 900; first compound 20 µM): 0.176
- relative viability (NCI-H2170; first compound 0.2 µM): 0.407
- relative viability (NCI-H2170; first compound 0.6325 µM): 0.406
- relative viability (NCI-H2170; first compound 2 µM): 0.414
- relative viability (NCI-H2170; first compound 6.325 µM): 0.264
- relative viability (NCI-H2170; first compound 20 µM): 0.172
- relative viability (NCI-H1563; first compound 0.2 µM): 0.672
- relative viability (NCI-H1563; first compound 0.6325 µM): 0.734
- relative viability (NCI-H1563; first compound 2 µM): 0.706
- relative viability (NCI-H1563; first compound 6.325 µM): 0.631
- relative viability (NCI-H1563; first compound 20 µM): 0.478
- relative viability (NCI-H650; first compound 0.2 µM): 0.477
- relative viability (NCI-H650; first compound 0.6325 µM): 0.389
- relative viability (NCI-H650; first compound 2 µM): 0.474
- relative viability (NCI-H650; first compound 6.325 µM): 0.412
- relative viability (NCI-H650; first compound 20 µM): 0.241

Reference: the supplement of paper PMC10307832
